Laboratory results taken from US20120129842A1, “BISTHIAZOLE INHIBITORS OF PRO-MATRIX METALLOPROTEINASE ACTIVATION” (priority 2010, published 2012).
Structures can show the parent of a compound that is named as a salt.

Columns and labels:
[1] = target: T1, proMMP9(20-445;ΔFnII) (SEQ ID NO:6) (Homo sapiens, UniProt P14780, DEL216-390); assay: ThermoFluor binding assay with proMMP9(20-445;ΔFnII); conditions: pH 7.0
T1 construct: start methionine (N); made in house; host or cells: E. coli BL21(DE3) RIL
T1 sequence (P14780 with tags, fused parts or gaps DEL216-390): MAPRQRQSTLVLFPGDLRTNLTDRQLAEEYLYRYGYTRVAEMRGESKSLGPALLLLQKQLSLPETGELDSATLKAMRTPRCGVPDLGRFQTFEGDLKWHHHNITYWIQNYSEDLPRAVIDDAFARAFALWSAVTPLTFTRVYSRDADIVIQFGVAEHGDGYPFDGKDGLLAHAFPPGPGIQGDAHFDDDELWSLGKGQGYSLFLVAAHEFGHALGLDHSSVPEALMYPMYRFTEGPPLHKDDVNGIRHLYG
Method: (§1) The ThermoFluor® (TF) assay is a 384-well plate-based binding assay that measures thermal stability of proteins (Biomol Screen 2001, 6, 429-40; Biochemistry 2005, 44, 5258-66). The experiments were carried out using instruments available from Johnson & Johnson Pharmaceutical Research & Development, LLC. TF dye used in all experiments was […] (1,8-ANS) (Invitrogen: A-47).
(§2) Compounds were arranged in a pre-dispensed plate (Greiner Bio-one: 781280), wherein compounds were serially diluted in 100% DMSO across 11 columns within a series. Columns 12 and 24 were used as DMSO reference and contained no compound. For multiple compound concentration-response experiments, the compound aliquots ([…]) were robotically predispensed directly into black 384-well polypropylene PCR microplates (Abgene: TF-0384/k) using a Cartesian Hummingbird liquid handler (DigiLab, Holliston, Mass.). Following compound dispense, protein and dye solutions were added to achieve the final assay volume of 3 μL. The assay solutions were overlayed with 1 μL of silicone oil (Fluka, type DC 200: 85411) to prevent evaporation.
(§3) Assay plates were robotically loaded onto a thermostatically controlled PCR-type thermal block and then heated from 40 to 90° C. at a ramp-rate of 1° C./min for all experiments. Fluorescence was measured by continuous illumination with UV light (Hamamatsu LC6) supplied via fiber optics and filtered through a band-pass filter (380-400 nm; >6 OD cutoff). Fluorescence emission of the entire 384-well plate was detected by measuring light intensity using a CCD camera (Sensys, Roper Scientific) filtered to detect 500±25 nm, resulting in simultaneous and independent readings of all 384 wells. A single image with 20-sec exposure time was collected at each temperature, and the sum of the pixel intensity in a given area of the assay plate was recorded vs temperature and fit to standard equations to yield the Tm (J Biomol Screen 2001, 6, 429-40).
(§4) Thermodynamic parameters necessary for fitting compound binding for each proMMP were estimated by differential scanning calorimetry (DSC) and from ThermoFluor® data. The heat capacity of unfolding for each protein was estimated from the molecular weight and from ThermoFluor® dosing data.
The protein sample preparations included a desalting buffer exchange step via a PD-10 gravity column (GE Healthcare). The desalting buffer exchange was performed prior to diluting the protein to the final assay concentration of 2.8 μM proMMP9(20-445;ΔFnII) (SEQ ID NO:6). The concentration of proMMP9(20-445;ΔFnII) (SEQ ID NO:6) was determined spectrophotometrically based on a calculated extinction coefficient of ε280=39880 M^−cm^−1, a calculated molecular weight of 28.2 kDa, and calculated pI of 5.5. ThermoFluor® reference conditions were define as follows: 80 μg/mL (2.8 μM) proMMP9(20-445;ΔFnII) (SEQ ID NO:6), 50 μM 1,8-ANS, pH 7.0 Buffer (50 mM HEPES pH 7.0, 100 mM NaCl, 0.001% Tween-20, 2.5 mM MgCl2, 300 μM CaCl2). The thermodynamic parameters for proMMP9(20-445;ΔFnII) (SEQ ID NO:6) are as follows: Tm (° C.)=72 (+/−0.1), ΔUH(Tm) (cal mol^−1)=160000(+/−5000), ΔUS(Tm) (cal mol^−1 K^−1)=434, ΔUCp (cal mol^−1 K^−)=2400.

[2] = target: T2, proMMP9(67-444;ΔFnII) (SEQ ID NO:5) (Homo sapiens, UniProt P14780, DEL216-390); assay: ThermoFluor binding assay with proMMP9(67-444;ΔFnII); conditions: pH 7.0
T2 construct: start methionine (N); made in house; host or cells: E. coli BL21(DE3) RIL
T2 sequence (P14780 with tags, fused parts or gaps DEL216-390): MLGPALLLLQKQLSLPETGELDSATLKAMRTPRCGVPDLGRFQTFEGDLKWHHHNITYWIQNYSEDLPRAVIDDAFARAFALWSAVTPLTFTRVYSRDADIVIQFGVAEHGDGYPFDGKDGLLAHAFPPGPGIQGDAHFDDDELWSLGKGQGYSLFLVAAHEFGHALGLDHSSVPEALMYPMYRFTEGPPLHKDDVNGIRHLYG
Method: as §1, §2, §3, §4
The protein sample preparations had to include a desalting buffer exchange step via a PD-10 gravity column (GE Healthcare). The desalting buffer exchange was performed prior to diluting the protein to the final assay concentration of 3.5 μM proMMP9(67-444;ΔFnII) (SEQ ID NO:5). The concentration of proMMP9(67-444;ΔFnII) (SEQ ID NO:5) was determined spectrophotometrically based on a calculated extinction coefficient of ε280=33900 M^−1cm^−1, a calculated molecular weight of 22.6 kDa, and calculated pI of 5.20. ThermoFluor® reference conditions were defined as follows: 80 μg/mL (3.5 μM) proMMP9(67-444;ΔFnII) (SEQ ID NO:5), 50 μM 1,8-ANS, pH 7.0 Buffer (50 mM HEPES pH 7.0, 100 mM NaCl, 0.001% Tween-20, 2.5 mM MgCl2, 300 μM CaCl2). The thermodynamic parameters for proMMP9(67-444;ΔFnII) (SEQ ID NO:5) are as follows: Tm (° C.)=63 (+/−0.1), ΔUH(Tm) (cal mol^−1)=105000(+/−5000), ΔUS(Tm) (cal mol^−1 K^−1)=[…], ΔUCp (cal mol^−1 K^−1)=2000.

[3] = target: T3, full-length proMMP9(1-707) (SEQ ID NO:1) (Homo sapiens, UniProt P14780, R574P); assay: proMMP9/MMP3 P126 Activation Assay; format: biochemical; conditions: 20 nM proMMP9, 20 nM MMP3, 80 min 37° C.
T3 construct: made in house; host or cells: HEK293 (proMMP9, secreted); E. coli (MMP3)
T3 sequence (P14780 20-707 R574P): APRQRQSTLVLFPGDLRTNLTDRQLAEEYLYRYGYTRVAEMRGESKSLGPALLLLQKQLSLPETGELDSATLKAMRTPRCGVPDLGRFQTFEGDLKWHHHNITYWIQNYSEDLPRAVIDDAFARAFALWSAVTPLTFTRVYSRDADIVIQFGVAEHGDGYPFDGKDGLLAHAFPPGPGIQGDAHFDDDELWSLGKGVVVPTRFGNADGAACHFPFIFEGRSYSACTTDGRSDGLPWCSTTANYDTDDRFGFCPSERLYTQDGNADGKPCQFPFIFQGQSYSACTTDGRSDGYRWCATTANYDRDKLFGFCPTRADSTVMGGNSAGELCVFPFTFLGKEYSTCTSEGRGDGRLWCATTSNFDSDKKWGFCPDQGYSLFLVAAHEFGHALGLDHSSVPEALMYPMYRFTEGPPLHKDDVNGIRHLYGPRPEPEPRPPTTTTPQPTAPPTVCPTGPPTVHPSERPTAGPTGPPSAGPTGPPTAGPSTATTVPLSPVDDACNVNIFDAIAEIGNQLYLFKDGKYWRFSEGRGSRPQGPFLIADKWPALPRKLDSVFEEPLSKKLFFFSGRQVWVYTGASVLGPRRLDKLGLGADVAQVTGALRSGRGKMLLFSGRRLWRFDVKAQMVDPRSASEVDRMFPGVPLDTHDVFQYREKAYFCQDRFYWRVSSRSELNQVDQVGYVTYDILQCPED
Method: The reaction volume was 50 μL. […] Reactivity of residual MMP3 towards P-126 substrate was minimal under these conditions.

Row | Kd [1] | Kd [2] | IC50 [3] | Compound
1 |  |  | 3600 nM | CC(=O)Nc1nc(C)c(-c2csc(Nc3cccc4cc(C)oc34)n2)s1 [Example 9, N-[4′-Methyl-2-(2-methyl-benzofuran-7-ylamino)-[4,5′]bithiazolyl-2′-yl]-acetamide]
2 |  |  | 5600 nM | CC(=O)Nc1nc(C)c(-c2csc(Nc3cccc4c3OC(F)(F)O4)n2)s1 [Example 10, N-[2-(2,2-Difluoro-benzo[1,3]dioxol-4-ylamino)-4′-methyl-[4,5′]bithiazolyl-2′-yl]-acetamide]
3 | 240 nM | 2100 nM | 1300 nM | Cc1nc(C)c(-c2csc(Nc3cc(C(N)=O)ccc3OCC(F)(F)F)n2)s1 [Example 16, 3-(2′,4′-Dimethyl-[4,5′]bithiazolyl-2-ylamino)-4-(2,2,2-trifluoro-ethoxy)-benzamide]
4 | 21000 nM | 6700 nM |  | CCN(CC)S(=O)(=O)c1ccc(OC)c(Nc2nc(-c3sc(NC(C)=O)nc3C)cs2)c1 [Example 20, N-[2-(5-Diethylsulfamoyl-2-methoxy-phenylamino)-4′-methyl-[4,5]bithiazolyl-2′-yl]-acetamide]
5 | 6400 nM | 1600 nM |  | COc1ccc(C(F)(F)F)cc1Nc1nc(-c2sc(N)nc2C)cs1 [Example 22, N^2-(2-Methoxy-5-trifluoromethyl-phenyl)-4′-methyl-[4,5′]bithiazolyl-2,2′-diamine.HBr]
6 | 1000 nM | 2800 nM | 5200 nM | COc1ccc(C(N)=O)cc1Nc1nc(-c2cnc(N)s2)cs1 [Example 27, 3-(2′-Amino-[4,5′]bithiazolyl-2-ylamino)-4-methoxy-benzamide.HBr]
7 | 14000 nM | 3900 nM |  | COc1cc(C(N)=O)ccc1Nc1nc(-c2sc(C)nc2C)cs1 [Example 35, 4-(2′,4′-Dimethyl-[4,5′]bithiazolyl-2-ylamino)-3-methoxy-benzamide]
8 | 570 nM | 7200 nM | 3600 nM | COc1cc(C)c(C(N)=O)cc1Nc1nc(-c2sc(N3CCN(C)CC3)nc2C)cs1 [Example 37, 4-Methoxy-2-methyl-5-[4′-methyl-2′-(4-methyl-piperazin-1-yl)-[4,5]bithiazolyl-2-ylamino]-benzamide.HCl]
9 | 550 nM |  | 800 nM | Cc1nc(C)c(-c2csc(Nc3cc(C(N)=O)ccc3CC(C)C)n2)s1 [Example 38, 3-(2′,4′-Dimethyl-[4,5′]bithiazolyl-2-ylamino)-4-isobutyl-benzamide.TFA]
10 | 84000 nM | 61000 nM | ~13000 nM | COc1cc(Nc2nc(-c3sc(C)nc3C)cs2)c2ncccc2c1 [Example 41, (2′,4′-Dimethyl-[4,5′]bithiazolyl-2-yl)-(6-methoxy-quinolin-8-yl)-amine.TFA]
11 | > 95000 nM | 52000 nM | 9100 nM | Cc1nc(C)c(-c2csc(Nc3cccc4cccnc34)n2)s1 [Example 42, (2′,4′-Dimethyl-[4,5′]bithiazolyl-2-yl)-quinolin-8-yl-amine.TFA]
12 | 870 nM | 1600 nM | 1200 nM | COc1ccc(S(N)(=O)=O)cc1Nc1nc(-c2sc(N)nc2C)cs1 [Example 52, 3-(2′-Amino-4′-methyl-[4,5′]bithiazolyl-2-ylamino)-4-methoxy-benzenesulfonamide.HBr]
13 | 1500 nM | 1200 nM | 1900 nM | COc1ccc(S(N)(=O)=O)cc1Nc1nc(-c2sc(NC(C)=O)nc2C)cs1 [Example 53, N-[2-(2-Methoxy-5-sulfamoyl-phenylamino)-4′-methyl-[4,5′]bithiazolyl-2′-yl]-acetamide.HBr]
14 | 1300 nM | 2300 nM | 12000 nM | COc1ccc(C(=O)NCc2ccccc2)cc1Nc1nc(-c2sc(N)nc2C)cs1 [Example 56, 3-(2′-Amino-4′-methyl-[4,5′]bithiazolyl-2-ylamino)-N-benzyl-4-methoxy-benzamide.TFA]
15 | 560 nM | 87 nM | 450 nM | COc1ccc([N+](=O)[O-])cc1Nc1nc(-c2sc(N)nc2C)cs1 [Example 67, N^2-(2-Methoxy-5-nitro-phenyl)-4′-methyl-[4,5′]bithiazolyl-2,2′-diamine.HBr]
16 | 8600 nM | 1200 nM | 1000 nM | Cc1nc(C)c(-c2csc(Nc3cc(C#N)ccc3OC(C)C)n2)s1 [Example 72, 3-(2′,4′-Dimethyl-[4,5′]bithiazolyl-2-ylamino)-4-isopropoxy-benzonitrile.HBr]
17 | 4300 nM | 330 nM | 520 nM | CC(=O)Nc1nc(C)c(-c2csc(Nc3cc(C#N)ccc3OC(C)C)n2)s1 [Example 73, N-[2-(5-Cyano-2-isopropoxy-phenylamino)-4′-methyl-[4,5′]bithiazolyl-2′-yl]-acetamide.HBr]
18 |  |  | 67 nM | Cc1nc(C2CCN(C)CC2)sc1-c1csc(Nc2cc(S(N)(=O)=O)ccc2OC(C)C)n1 [Example 156, 4-Isopropoxy-3-((4′-methyl-2′-(1-methylpiperidin-4-yl)-[4,5′-bithiazol]-2-yl)amino)benzenesulfonamide.TFA]
19 |  |  | 290 nM | CCOc1ccncc1Nc1nc(-c2sc(C3CCN(C)CC3)nc2C)cs1 [Example 158, N-(4-Ethoxypyridin-3-yl)-4′-methyl-2′-(1-methylpiperidin-4-yl)-[4,5′-bithiazol]-2-amine.TFA]

Row | Compound | Kd [1] | Kd [2] | IC50 [3]
20 | CCC(C)Oc1ccc(C(N)=O)cc1Nc1nc(-c2sc(C)nc2C)cs1 (racemic) [Example 14, (±)-4-sec-Butoxy-3-(2′,4′-dimethyl-[4,5′]bithiazolyl-2-ylamino)-benzamide.TFA] | 570 nM | 7000 nM | 4700 nM
21 | Cc1nc(C)c(-c2csc(Nc3cc(C(N)=O)ccc3OC(C)(C)C)n2)s1 [Example 12, 4-tert-Butoxy-3-(2′,4′-dimethyl-[4,5′]bithiazolyl-2-ylamino)-benzamide] | 1900 nM | 15000 nM | 2500 nM
